Where two headings read alike, the source gives them in different places.

For data set [1] the following is noted: cited from earlier work; for MTD: clinical.
The next data set has as its system normal astrocytes. Kind of data set: Effect on normal astrocytes. The class given is cell-based. The settings on record: 10 nanomolar.
The test system of a further data set is primary DIPG cell lines. Kind of data set: Effect on primary DIPG cell lines / primary tumor astrocytes. Type of data set: cell-based. An excerpt:
Maternal embryonic leucine zipper kinase (MELK) is a serine/threonine kinase implicated in many cellular processes involved in embryogenesis and oncogenesis. Overexpression of MELK is a common feature of diffuse intrinsic pontine glioma (DIPG) and related to tumor grade.

A short description of data set [2]: Transport over the blood-brain barrier, brain-to-plasma ratio. Type of data set: in vivo, mouse.

`CCN(CCCOc1ccc2c(Nc3cc(CC(=O)Nc4cccc(F)c4)n[nH]3)ncnc2c1)CCOP(=O)(O)O` [AZD1152]: the MTB in data set [1] (clinical evaluation, dependent on the dosing schedule) was 200 to 450 mg.
On to `C[C@@H](Oc1cc(-c2cnn(C3CCNCC3)c2)cnc1N)c1c(Cl)ccc(F)c1Cl` [Crizotinib], for which the MTD in data set [1] is 250 mg twice a day.
Consider `Nc1ncn([C@H]2C[C@H](O)[C@@H](CO)O2)c(=O)n1` [Decitabine], for which the MTD in data set [1] (over 1-3 days) is 1,500-2,000/mg/m^2 over 1-3 days.
As to `Cc1cccc(-c2nn3c(c2-c2ccnc4ccc(C(N)=O)cc24)CCC3)n1` [Galunisertib], in data set [1] (result in words), the MTD result is on record as “Not able to determine MTD due to potential cardiovascular DLT”.
As for `CC[C@H](Nc1ncnc2[nH]cnc12)c1nc2cccc(F)c2c(=O)n1-c1ccccc1` [Idelalisib], in data set [1], the MTD result is on record as “Not reached up to 350 mg twice a day”.
As to `CC(=O)c1cnc2ccc(-c3cc(Cl)c(O)c(Cl)c3)nc2c1NC1CCC(CN(C)C)CC1` (stereo not shown) [OTS167, 1-[6-(3,5-Dichloro-4-hydroxyphenyl)-4-({4-[(dimethylamino)methyl]cyclohexyl}amino)-1,5-naphthyridin-3-yl]ethanone], in the data set with normal astrocytes, the “Apoptosis in non-somatic (normal) cells” value is on record as “no apoptosis occurs” and the “Growth of normal astrocytes” value is recorded as “only slightly slows down the growth”. The “Toxicity / apoptosis on primary tumor astrocytes” value in the data set with primary DIPG cell lines (10 nM, most DIPG tumor cell lines) is “toxic and induces apoptosis”. For the same compound, in the data set with primary DIPG cell lines (low nanomolar concentrations), the “Cell death in primary DIPG cell lines” value is reported as “induces cell death”, the “Migration of primary DIPG cell lines” value was “effectively inhibits migration” and the “Proliferation of primary DIPG cell lines” value is listed as “reduces proliferation”. The “Factor of increase of concentration in brain tissue” value in data set [2] (co-administering a P-glycoprotein1 / Abcb1a inhibitor) is no less than 4. In addition, the Kp in data set [2] (mouse, brain and plasma, mouse models (wild type), passive transport, read-out: Brain-to-plasma (B/P) ratio) stood at 0.02. Moreover, in data set [2] (with pharmaceutically acceptable toxic adverse effects), the “Absolute concentration reached in the brain” value is “about 10 nanomolar”.
As to `CS(=O)(=O)c1ccc(C(=O)Nc2ccc(Cl)c(-c3ccccn3)c2)c(Cl)c1` [Vismodegib], in data set [1], the MTD result was “Not reached up to 540 mg/d”.
Take Pembrolizumab: the MTD entry in data set [1] was “Not reached up to 10 mg/kg q2w”.
